# Measurements: PubChem BioAssay AID292 (DTP/NCI, 2004)
# Values joined by “and” are separate entries in the source; they are usually repeats but may differ in a detail not shown here. Identical values can stand only once. Inconclusive results and toxic doses are left out.
# Tested on: B6C3F1 mice, ip Sarcoma M5076, median survival T/C
# Assay: NCI In Vivo Anticancer Drug Screen. Data for tumor model Sarcoma M5076 (intraperitoneal) in B6C3F1 mice
# Conditions: endpoint: median survival time, schedule: Q04DX004 (ip), higher = longer survival
# Outline: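 Antitumour effect is judged in tumour-bearing mice by comparing survival after compound dosing against vehicle-only animals, reported as T/C.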
# [1] = dose: 50.0 mg/kg/injection, vehicle: saline with Tween-80
# [2] = dose: 200.0 mg/kg/injection, vehicle: saline with Tween-80
structure (smiles),measurement,setting,value
COc1ccc2nc(C)cc(N/N=C/c3cccnc3)c2c1,T/C,"dose: 12.5 mg/kg/injection, vehicle: Klucel (hydroxypropylcellulose) (HPC)",104 % of control
same,T/C,"dose: 25.0 mg/kg/injection, vehicle: Klucel (hydroxypropylcellulose) (HPC)",114 % of control
same,T/C,"dose: 50.0 mg/kg/injection, vehicle: Klucel (hydroxypropylcellulose) (HPC)",116 % of control
same,T/C,"dose: 100.0 mg/kg/injection, vehicle: Klucel (hydroxypropylcellulose) (HPC)",117 % of control
Cc1cccc(OCC(O)CN2CC2)c1 (stereo not given),T/C,"dose: 25.0 mg/kg/injection, vehicle: saline with Tween-80",101 % of control and 104 % of control
same,T/C,"dose: 36.0 mg/kg/injection, vehicle: saline with Tween-80",97 % of control
same,T/C,[1],105 % of control and 114 % of control
same,T/C,"dose: 60.0 mg/kg/injection, vehicle: saline with Tween-80",102 % of control
same,T/C,"dose: 166.66 mg/kg/injection, vehicle: saline with Tween-80",119 % of control
same,T/C,[2],108 % of control
same,T/C,"dose: 277.77 mg/kg/injection, vehicle: saline with Tween-80",116 % of control
CCN(Cc1ccc(Cl)c(Cl)c1)c1ccc2nc(N)nc(N)c2c1C,T/C,"dose: 6.25 mg/kg/injection, vehicle: saline",107 % of control
same,T/C,"dose: 12.5 mg/kg/injection, vehicle: saline",107 % of control and 122 % of control
same,T/C,"dose: 25.0 mg/kg/injection, vehicle: saline",118 % of control (2×) and 123 % of control
same,T/C,"dose: 50.0 mg/kg/injection, vehicle: saline",110 % of control
Cc1c2ccccc2c(C)c2c1cc(C(=O)O)c1ccccc12,T/C,"dose: 12.5 mg/kg/injection, vehicle: sodium bicarbonate",113 % of control
same,T/C,"dose: 25.0 mg/kg/injection, vehicle: sodium bicarbonate",113 % of control
same,T/C,"dose: 50.0 mg/kg/injection, vehicle: sodium bicarbonate",113 % of control
same,T/C,"dose: 200.0 mg/kg/injection, vehicle: sodium bicarbonate",124 % of control
O=C(Nc1ccccc1O)C1C(=O)C(=O)N(c2ccccc2O)C1=O (stereo not given),T/C,[1],106 % of control
same,T/C,"dose: 100.0 mg/kg/injection, vehicle: saline with Tween-80",103 % of control
same,T/C,[2],100 % of control
same,T/C,"dose: 400.0 mg/kg/injection, vehicle: saline with Tween-80",100 % of control
same,T/C,"dose: 800.0 mg/kg/injection, vehicle: saline with Tween-80",95 % of control
O=C1N=NC2=C1c1c3ccccc3c(O)n1CC2,T/C,"dose: 25.0 mg/kg/injection, vehicle: water",97 % of control
same,T/C,"dose: 50.0 mg/kg/injection, vehicle: water",95 % of control
same,T/C,"dose: 100.0 mg/kg/injection, vehicle: water",93 % of control
same,T/C,"dose: 200.0 mg/kg/injection, vehicle: water",100 % of control
OCC(O)C(O)C(O)C(O)CO (stereo not given),T/C,"dose: 75.0 mg/kg/injection, vehicle: saline",96 % of control and 102 % of control
same,T/C,"dose: 150.0 mg/kg/injection, vehicle: saline",111 % of control
same,T/C,"dose: 300.0 mg/kg/injection, vehicle: saline",96 % of control and 100 % of control
same,T/C,"dose: 600.0 mg/kg/injection, vehicle: saline",92 % of control and 101 % of control
same,T/C,"dose: 1200.0 mg/kg/injection, vehicle: saline",101 % of control and 106 % of control
O=C1c2c(O)cccc2-c2nn(CCNCCO)c3ccc(NCCNCCO)c1c23,T/C,"dose: 2.75 mg/kg/injection, vehicle: water",169 % of control
same,T/C,"dose: 5.5 mg/kg/injection, vehicle: water",233 % of control and 263 % of control
same,T/C,"dose: 11.0 mg/kg/injection, vehicle: water",243 % of control
same,T/C,"dose: 22.0 mg/kg/injection, vehicle: water",109 % of control
O=S(=O)(O)C1=CC(=N\Cl)/C=CC/1=N/Cl,T/C,"dose: 37.5 mg/kg/injection, vehicle: saline with Tween-80",104 % of control
same,T/C,"dose: 75.0 mg/kg/injection, vehicle: saline with Tween-80",104 % of control
same,T/C,"dose: 150.0 mg/kg/injection, vehicle: saline with Tween-80",106 % of control
same,T/C,"dose: 300.0 mg/kg/injection, vehicle: saline with Tween-80",108 % of control
CCC(=O)[O][Bi]([c]1ccccc1)[c]1ccccc1,T/C,"dose: 3.0 mg/kg/injection, vehicle: Klucel (hydroxypropylcellulose) (HPC)",101 % of control
same,T/C,"dose: 6.0 mg/kg/injection, vehicle: Klucel (hydroxypropylcellulose) (HPC)",98 % of control
same,T/C,"dose: 12.0 mg/kg/injection, vehicle: Klucel (hydroxypropylcellulose) (HPC)",102 % of control
same,T/C,"dose: 24.0 mg/kg/injection, vehicle: Klucel (hydroxypropylcellulose) (HPC)",89 % of control
